Experimental data reported in patent publication EP4768499A1, “MACROCYCLIC PEPTIDE COMPOUND HAVING CELL MEMBRANE PERMEABILITY AND METABOLIC STABILITY, AND LIBRARY CONTAINING SAME” (Chugai Seiyaku Kabushiki Kaisha, priority 2023, dated 2025).
Starred links: 1 amine or outer side, 2 acyl side, 3 side chain; linkers in the order of their positions; H or OH if unused. Positions of bridges follow the written chain, without caps; N, C: chain ends. Non-standard residues stand in square brackets, D forms with d. Residues, ends and D or L forms follow the SMILES beside them. *: point of attachment. NMeF = CN[C@@H](Cc1ccccc1)C(=O)O; NMeGABA = CN(CCCC(=O)[*:2])[*:1]; NMeI = CC[C@H](C)[C@H](NC)C(=O)O; hPhe = N[C@@H](CCc1ccccc1)C(=O)O; NMeβAla = CN(CCC(=O)[*:2])[*:1]; NMeD = CN[C@@H](CC(=O)O)C(=O)O; NMeL = CN[C@@H](CC(C)C)C(=O)O; NMeV = CN[C@H](C(=O)O)C(C)C; d(β3hA) = C[C@@H](N)CC(=O)O; NMeA = CN[C@@H](C)C(=O)O; Piperidide = C1CCN(*)CC1; Abu = CC[C@H](N)C(=O)O; Sar = CNCC(=O)O; tBu = CC(C)(C)*

Tests used:
[1] = Metabolic stability test: liver microsomal stability assay; format: in vitro ADME, mouse; settings: mouse liver microsomes 0.5 mg protein/mL, compound 1 µM; for microsomal CLint at 1 µM: male, pH 7.4, presence of NADPH, read-out: Mouse Hepatic Microsome CLh,int NADPH(+); for Mouse Hepatic Microsome CLh,int NADPH(-): absence of NADPH
Experimental: Under the presence and absence of NADPH, a microsome solution prepared to a concentration of 0.5 mg protein/mL using 100 mM phosphate buffer (pH 7.4) with mouse liver microsomes (male, Corning Incorporated, USA) and the compound at a concentration of 1 µM were subjected to a metabolic reaction for 22 minutes, 44 minutes, or 66 minutes. Protein removal processing was performed over time using acetonitrile, and the remaining amount of unchanged compound was analyzed using LCMS to calculate the intrinsic hepatic clearance (CLh, int) (Table 6).

Caco-2 cells = experiment: Membrane permeability test using Caco-2 cells with preincubation; format: in vitro ADME; settings: preincubation 20 to 24 hours; for Caco2 Papp (10^-6 cm/sec): Caco-2 cells, apical FaSSIF/HBSS 1% DMSO pH 6.0, basal HBSS 4% BSA pH 7.4, basal sample at 180 minutes; for Caco2 Papp: Apical FaSSIF/HBSS pH 6.0, Basal HBSS 4% BSA pH 7.4, 180 minutes
Experimental: The permeability coefficient (Caco-2 Papp (cm/sec)) is calculated using a numerical expression 1. [Expression 1] Papp = (1)/(C1 (0) × S) × (dQ)/(dt) [formula] dQ/dt represents the permeation rate of drug (the amount of drug appearing on the Basal side per unit time), S represents the total surface area of cells, and C1(0) represents the concentration of drug added on the Apical side.
Using a mixed medium of FaSSIF containing 1% DMSO and DMEM as the apical medium, and DMEM as the basal medium, Caco-2 cells and peptide compounds are preincubated for 20 to 24 hours under conditions of 5% CO2, 37°C, and 80 rpm. Afterward, the culture medium on the Apical side and the Basal side are aspirated and washed, the peptide compound was added to a FaSSIF/HBSS buffer solution containing 1% DMSO (1% DMSO) (pH 6.0) at the Apical side, a HBSS buffer solution containing 4% BSA (pH 7.4) was added to the Basal side, and measurement of membrane permeability is started. Each well is shaken under 5% CO2 at 37°C and 80 rpm, and at 180 minutes after the start of shaking, a sample on the Basal side is collected. The amount of peptide compounds in the sample was measured using LCMS, and the membrane permeability coefficient was calculated from the permeation amount (Table 7). When calculating the membrane permeability coefficient (Papp) from the permeation amount, the following expression can be used. Papp = (dQ)/(dt) × (1)/(C1 (0) × S) [formula]
dQ/dt represents the permeation rate of drug (the amount of drug appearing on the Basal side per unit time), C1(0) represents the concentration of drug added on the Apical side, and S represents the total surface area of cells.

In the case of `CC[C@@H]1NC(=O)[C@H]([C@@H](C)CC)NC(=O)[C@H](Cc2ccccc2)N(C)C(=O)[C@H](CC(C)C)N(C)C(=O)[C@H](CC(C)C)NC(=O)CCN(C)C(=O)C[C@@H](C(=O)N2CCCCC2)NC(=O)[C@H](C(C)C)NC(=O)[C@H](CC(C)C)N(C)C(=O)[C@H](C)N(C)C(=O)[C@H](C(C)C)NC(=O)[C@H](CC(C)C)N(C)C(=O)[C@H](COC(C)(C)C)NC(=O)[C@H](Cc2ccccc2)N(C)C1=O` [pd015] ([NMeβAla]L[NMeL][NMeF]I[Abu][NMeF]S(tBu)[NMeL]V[NMeA][NMeL]VD-Piperidide; lactam N-14), the microsomal CLint at 1 µM [1] is reported as 32.5 µL/min/mg, the “Mouse Hepatic Microsome CLh,int NADPH(-)” value [1] is reported as 26.2 µL/min/mg Protein and the “Caco2 Papp (10^-6 cm/sec)” value (Caco-2 cells) is reported as 0.04 10^-6 cm/sec. For the same compound, the “Caco2 Papp” value (Caco-2 cells) was 0.04 10^-6 cm/sec.

In the case of `CC[C@@H]1NC(=O)[C@H](CC(C)C)N(C)C(=O)[C@H](COC(C)(C)C)NC(=O)[C@H](Cc2ccccc2)N(C)C(=O)[C@H](CC)NC(=O)[C@H](Cc2ccccc2)N(C)C(=O)[C@H](C)N(C)C(=O)[C@H](CC(C)C)N(C)C(=O)[C@H](CC(C)C)NC(=O)CCCN(C)C(=O)C[C@@H](C(=O)N2CCCCC2)NC(=O)[C@H](CC(C)C)N(C)C(=O)[C@H](C(C)C)NC(=O)[C@H](C)N(C)C1=O` [pd016] ([NMeGABA]L[NMeL][NMeA][NMeF][Abu][NMeF]S(tBu)[NMeL][Abu][NMeA]V[NMeL]D-Piperidide; lactam N-14), the microsomal CLint at 1 µM [1] is reported as 49.9 µL/min/mg, the “Mouse Hepatic Microsome CLh,int NADPH(-)” value [1] is reported as 32.9 µL/min/mg Protein and the “Caco2 Papp (10^-6 cm/sec)” value (Caco-2 cells) is reported as 0.47 10^-6 cm/sec. The “Caco2 Papp” value (Caco-2 cells) was 0.47 10^-6 cm/sec.

With `CC[C@@H]1NC(=O)CCN(C)C(=O)C[C@@H](C)NC(=O)[C@H](CC(C)C)N(C)C(=O)[C@H]([C@@H](C)O)NC(=O)[C@H](C)N(C)C(=O)[C@H]([C@@H](C)CC)NC(=O)[C@H](CCc2ccccc2)NC(=O)[C@H](CC(C)C)N(C)C(=O)[C@H](C)N(C)C(=O)[C@H](Cc2ccccc2)N(C)C(=O)[C@@H]2CCCN2C(=O)[C@H]([C@@H](C)CC)NC(=O)[C@H](CC(C)C)N(C)C1=O` [pd051] (cyclo([Abu][NMeL]IP[NMeF][NMeA][NMeL][hPhe]I[NMeA]T[NMeL][d(β3hA)][NMeβAla])) the microsomal CLint at 1 µM [1] was 24.6 µL/min/mg, the “Mouse Hepatic Microsome CLh,int NADPH(-)” value [1] was 28.8 µL/min/mg Protein and the “Caco2 Papp (10^-6 cm/sec)” value (Caco-2 cells) was 0.21 10^-6 cm/sec. The “Caco2 Papp” value (Caco-2 cells) was 0.21 10^-6 cm/sec.

With `CC[C@H](C)[C@H]1C(=O)N[C@@H](CC(C)C)C(=O)N(C)[C@@H](CC(C)C)C(=O)N(C)[C@@H](C(C)C)C(=O)N(C)[C@@H](C)C(=O)N[C@@H]([C@@H](C)O)C(=O)N(C)[C@@H](CC(C)C)C(=O)N[C@H](C)CC(=O)N(C)CCC(=O)N[C@@H](CCc2ccccc2)C(=O)N(C)[C@@H](CC(C)C)C(=O)N2CCC[C@H]2C(=O)N(C)[C@@H](Cc2ccccc2)C(=O)N(C)[C@@H](C)C(=O)N1C` [pd060] (cyclo(L[NMeL][NMeV][NMeA]T[NMeL][d(β3hA)][NMeβAla][hPhe][NMeL]P[NMeF][NMeA][NMeI])) the microsomal CLint at 1 µM [1] was 32.4 µL/min/mg, the “Mouse Hepatic Microsome CLh,int NADPH(-)” value [1] was 38.6 µL/min/mg Protein and the “Caco2 Papp (10^-6 cm/sec)” value (Caco-2 cells) was 0.63 10^-6 cm/sec. For the same compound, the “Caco2 Papp” value (Caco-2 cells) was 0.63 10^-6 cm/sec.

With `CC[C@H](C)[C@@H]1NC(=O)[C@H]([C@@H](C)CC)N(C)C(=O)[C@@H](C)NC(=O)C[C@@H](C(=O)N2CCCCC2)N(C)C(=O)[C@H](C(C)C)NC(=O)[C@H](Cc2ccccc2)N(C)C(=O)[C@H](C(C)C)NC(=O)[C@H](CC(C)C)N(C)C(=O)[C@H](C)NC(=O)CN(C)C(=O)[C@H](CC(C)C)N(C)C(=O)[C@H](C(C)C)NC(=O)[C@H](C)N(C)C(=O)[C@H](Cc2ccccc2)N(C)C1=O` [pd074] ([dA][NMeI]I[NMeF][NMeA]V[NMeL][Sar]A[NMeL]V[NMeF]V[NMeD]-Piperidide; lactam N-14) the microsomal CLint at 1 µM [1] was 26.9 µL/min/mg, the “Mouse Hepatic Microsome CLh,int NADPH(-)” value [1] was 26.9 µL/min/mg Protein and the “Caco2 Papp (10^-6 cm/sec)” value (Caco-2 cells) was 0.22 10^-6 cm/sec. The “Caco2 Papp” value (Caco-2 cells) was 0.22 10^-6 cm/sec.
